Assay results as given in US12697315B2, “Treatment for interstitial lung disease” (United Therapeutics Corporation, priority 2020, dated 2026).

Key:
[1] = test system: patients with interstitial lung disease and pulmonary hypertension; assay: Pulmonary function tests (FVC, FEV1, TLC, DLCO), mixed model repeated measurement, INCREASE; assay type: in vivo, human
Experimental: Subjects having underlying lung disease were treated with inhaled treprostinil over 16 weeks. Subjects initiated inhaled treprostinil or placebo at a dose of 3 breaths (18 mcg) 4 times daily (during waking hours). Study drug doses were maximized throughout the study. Dose escalations (additional 1 breath 4 times daily) could occur up to every 3 days with a target dosing regimen of 9 breaths (54 mcg) 4 times daily and a maximum dose of 12 breaths (72 mcg) 4 times daily, as clinically tolerated. Subjects were assessed during Screening and Baseline to determine eligibility for the study. Once eligible, 5 Treatment Phase visits to the clinic were required at Week 4, Week 8, Week 12, Week 15, and Week 16 (final study visit). An Early Termination (ET) Visit was conducted for subjects who discontinued prior to Week 16; all assessments planned for the final Week 16 Visit were conducted during the ET Visit, if applicable. Subjects were contacted at least weekly by telephone or email to assess tolerance to study drug, adverse events (AEs), and changes to concomitant medications.
Pulmonary function testing was initially conducted as a safety assessment (Safety Population) during the study. […] As a result, post hoc MMRM analyses of FVC data were performed for the ITT Population and are presented in Table 1 (ITT Population), Table 2 (by PH ILD Etiology of IIP) and Table 3 (for subjects with IPF), shown below.
The 6-minute walk test was performed and laboratory data were obtained at baseline and at weeks 4, 8, 12, and 16, or at the time of early discontinuation of treprostinil or placebo. Each 6-minute walk test was performed 10 to 60 minutes after the most recent dose of active drug or placebo, which is the time of peak plasma treprostinil exposure. A trough test was performed at week 15 at least 4 hours after the participant received a dose of treprostinil or placebo and at least 24 hours before the week 16 test. Pulse oximetry was performed immediately before, during, and after each 6-minute walk test. Measurement of N-terminal pro-B-type natriuretic peptide (NT-proBNP) levels and pulmonary function tests were performed at baseline and at weeks 8 and 16 (or at early discontinuation) after the patients recovered from the 6-minute walk test. The St. George's Respiratory Questionnaire (SGRQ), a quality-of-life measure, was completed at baseline and week 16 or at the time of early discontinuation.
LS Mean (SE); P-values; estimated difference (SE); and associated 95% CIs are from the mixed model repeated measurement with the change from Baseline in pulmonary function test parameter as the dependent variable; treatment, week, treatment by week interaction as the fixed effects; Baseline measurement as the covariate; and subject as the random effect. An unstructured variance/covariance structure shared across treatment groups was used to model the within-subject errors.

[2] = test system: patients with interstitial lung disease and pulmonary hypertension; settings: human, in vivo, 16 weeks
Text: Safety assessments consisted of the development of AEs, vital signs, clinical laboratory parameters, ECG parameters, hospitalizations due to cardiopulmonary indications, exacerbations of underlying lung disease, and oxygenation.
Safety end points included adverse events, abnormal laboratory results, oxygenation as measured by pulse oximetry (Spo2) and supplemental oxygen requirement, changes in pulmonary function test results, hospitalization for a cardiopulmonary indication, and investigator-reported exacerbations of underlying lung disease, defined as acute, clinically significant respiratory deterioration characterized by evidence of new widespread alveolar abnormality.

[3] = Week 8, subjects with IPF, listed as inhaled treprostinil
[4] = Week 16, subjects with IPF, listed as inhaled treprostinil

SMILES: CCCCC[C@H](O)CC[C@@H]1[C@H]2Cc3cccc(OCC(=O)O)c3C[C@H]2C[C@H]1O [Inhaled treprostinil, treprostinil]
- effect on any pulmonary function test variable during the trial ([1]; 16-week trial): no deleterious effect
- FVC (% predicted), Estimated Difference Inhaled treprostinil - Placebo ([1]; Week 8, ITT Population, MMRM): 1.79 % predicted
- FVC (% predicted), LS Mean change from baseline ([1]; Week 8, ITT Population, MMRM): 0.77 % predicted
- FVC (mL), Estimated Difference Inhaled treprostinil - Placebo ([1]; Week 8, ITT Population, MMRM): 28.47 mL
- FVC (mL), LS Mean change from baseline ([1]; Week 8, ITT Population, MMRM): 5.49 mL
- DLCO (% predicted), Estimated Difference Inhaled treprostinil − Placebo ([1]; Week 8, MMRM): 1.07 % predicted
- DLCO (% predicted), LS Mean change from Baseline ([1]; Week 8, MMRM): −0.13 % predicted
- DLCO (mL/min/mmHg), Estimated Difference Inhaled treprostinil − Placebo ([1]; Week 8, MMRM): 0.19 mL/min/mmHg
- DLCO (mL/min/mmHg), LS Mean change from Baseline ([1]; Week 8, MMRM): −0.27 mL/min/mmHg
- FEV1 (% predicted), Estimated Difference Inhaled treprostinil − Placebo ([1]; Week 8, MMRM): 0.57 % predicted
- FEV1 (% predicted), LS Mean change from Baseline ([1]; Week 8, MMRM): −0.18 % predicted
- FEV1 (mL), Estimated Difference Inhaled treprostinil − Placebo ([1]; Week 8, MMRM): -8.95 mL
- FEV1 (mL), LS Mean change from Baseline ([1]; Week 8, MMRM): -21.34 mL
- TLC (% predicted), Estimated Difference Inhaled treprostinil − Placebo ([1]; Week 8, MMRM): 0.28 % predicted
- TLC (% predicted), LS Mean change from Baseline ([1]; Week 8, MMRM): −0.05 % predicted
- TLC (mL), Estimated Difference Inhaled treprostinil − Placebo ([1]; Week 8, MMRM): -16.23 mL
- TLC (mL), LS Mean change from Baseline ([1]; Week 8, MMRM): -38.75 mL
- FVC (% predicted), Estimated Difference Inhaled treprostinil - Placebo ([1]; Week 8, PH-ILD etiology IIP): 1.95 % predicted
- FVC (% predicted), LS Mean change from baseline ([1]; Week 8, PH-ILD etiology IIP): 0.92 % predicted
- FVC (mL), Estimated Difference Inhaled treprostinil - Placebo ([1]; Week 8, PH-ILD etiology IIP): 46.48 mL
- FVC (mL), LS Mean change from baseline ([1]; Week 8, PH-ILD etiology IIP): 9.27 mL
- FVC (% predicted), Estimated Difference Inhaled treprostinil - Placebo ([1]; Week 8, subjects with IPF): 2.543 % predicted
- FVC (% predicted), LS Mean change from baseline ([1]; Week 8, subjects with IPF): 1.60 % predicted
- FVC (mL), Estimated Difference Inhaled treprostinil - Placebo ([1]; Week 8, subjects with IPF): 84.522 mL
- FVC (mL), LS Mean change from baseline ([1]; Week 8, subjects with IPF): 41.69 mL
- FVC (% predicted), Estimated Difference Inhaled treprostinil - Placebo [1, 3]: 2.54 % predicted
- FVC (mL), Estimated Difference Inhaled treprostinil - Placebo [1, 3]: 84.52 mL
- FVC (% predicted), Estimated Difference Inhaled treprostinil - Placebo ([1]; Week 16, ITT Population, MMRM): 1.80 % predicted
- FVC (% predicted), LS Mean change from baseline ([1]; Week 16, ITT Population, MMRM): 1.07 % predicted
- FVC (mL), Estimated Difference Inhaled treprostinil - Placebo ([1]; Week 16, ITT Population, MMRM): 44.40 mL
- FVC (mL), LS Mean change from baseline ([1]; Week 16, ITT Population, MMRM): 9.77 mL
- DLCO (% predicted), Estimated Difference Inhaled treprostinil − Placebo ([1]; Week 16, MMRM): 0.60 % predicted
- DLCO (% predicted), LS Mean change from Baseline ([1]; Week 16, MMRM): −1.14 % predicted
- DLCO (mL/min/mmHg), Estimated Difference Inhaled treprostinil − Placebo ([1]; Week 16, MMRM): 0.02 mL/min/mmHg
- DLCO (mL/min/mmHg), LS Mean change from Baseline ([1]; Week 16, MMRM): −0.61 mL/min/mmHg
- FEV1 (% predicted), Estimated Difference Inhaled treprostinil − Placebo ([1]; Week 16, MMRM): 0.38 % predicted
- FEV1 (% predicted), LS Mean change from Baseline ([1]; Week 16, MMRM): −0.24 % predicted
- FEV1 (mL), Estimated Difference Inhaled treprostinil − Placebo ([1]; Week 16, MMRM): -2.56 mL
- FEV1 (mL), LS Mean change from Baseline ([1]; Week 16, MMRM): -32.18 mL
- TLC (% predicted), Estimated Difference Inhaled treprostinil − Placebo ([1]; Week 16, MMRM): 1.49 % predicted
- TLC (% predicted), LS Mean change from Baseline ([1]; Week 16, MMRM): 2.52 % predicted
- TLC (mL), Estimated Difference Inhaled treprostinil − Placebo ([1]; Week 16, MMRM): 17.37 mL
- TLC (mL), LS Mean change from Baseline ([1]; Week 16, MMRM): 45.43 mL
- FVC (% predicted), Estimated Difference Inhaled treprostinil - Placebo ([1]; Week 16, PH-ILD etiology IIP): 2.88 % predicted
- FVC (% predicted), LS Mean change from baseline ([1]; Week 16, PH-ILD etiology IIP): 1.66 % predicted
- FVC (mL), Estimated Difference Inhaled treprostinil - Placebo ([1]; Week 16, PH-ILD etiology IIP): 108.18 mL
- FVC (mL), LS Mean change from baseline ([1]; Week 16, PH-ILD etiology IIP): 22.16 mL
- FVC (% predicted), median improvement ([1]; Week 16, Safety Population): 1.0%
- FVC (% predicted), Estimated Difference Inhaled treprostinil - Placebo ([1]; Week 16, subjects with IPF): 3.504 % predicted
- FVC (% predicted), LS Mean change from baseline ([1]; Week 16, subjects with IPF): 1.62 % predicted
- FVC (mL), Estimated Difference Inhaled treprostinil - Placebo ([1]; Week 16, subjects with IPF): 168.524 mL
- FVC (mL), LS Mean change from baseline ([1]; Week 16, subjects with IPF): 38.24 mL
- FVC (% predicted), Estimated Difference Inhaled treprostinil - Placebo [1, 4]: 3.50 % predicted
- FVC (mL), Estimated Difference Inhaled treprostinil - Placebo [1, 4]: 168.52 mL
- Serious adverse event: Rhinovirus infection [2]: 1 n
